The assay addresses T1, Human M4 (Homo sapiens, UniProt P08173).
T1 construct: expressed in transfected cells; host or cells: CHO-K1 (ATCC), co-transfected with chimeric G protein Gqi5
T1 sequence (P08173 1-479): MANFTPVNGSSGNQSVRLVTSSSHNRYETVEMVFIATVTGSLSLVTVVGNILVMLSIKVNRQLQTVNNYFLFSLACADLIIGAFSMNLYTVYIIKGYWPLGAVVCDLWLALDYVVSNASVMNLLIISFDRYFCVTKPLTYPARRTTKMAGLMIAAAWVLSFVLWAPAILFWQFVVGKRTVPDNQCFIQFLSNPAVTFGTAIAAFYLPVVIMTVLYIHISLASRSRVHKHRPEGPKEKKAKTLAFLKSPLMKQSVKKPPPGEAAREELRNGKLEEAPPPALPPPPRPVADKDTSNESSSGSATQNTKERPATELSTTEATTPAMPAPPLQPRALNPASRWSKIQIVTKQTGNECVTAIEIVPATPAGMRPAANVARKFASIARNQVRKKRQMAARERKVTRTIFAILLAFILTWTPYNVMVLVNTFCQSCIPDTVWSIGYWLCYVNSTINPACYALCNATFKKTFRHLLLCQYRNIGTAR
Kind of assay: mAChR M4 cell-based functional assay (calcium flux, antagonism of EC80 acetylcholine response). The following applies: for IC50: concentration-dependent decrease of the response elicited by an EC80 concentration of acetylcholine. The method in brief:
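CHO-K1 cells stably expressing human M4 with chimeric Gqi5, Fluo-4 loaded; calcium flux read on FDSS. Compound (10-point, 1:3 series) added first, then EC20 acetylcholine at 143 s and EC80 at 268 s. IC50 from concentration-dependent decrease of EC80 response, four-parameter logistic fit.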

The mark [1] stands for this setting: M4/Gqi5/CHO-K1 cells, % ACh maximum at 30 μM, read-out: Human M4 Emin (% ACh maximum at 30 μM).
Setting [2] is: M4/Gqi5/CHO-K1 cells, % ACh maximum at 30 μM.

What is called IC50 is the concentration that gives 50% inhibition.

Structures are written as SMILES. Where two headings read alike, the source gives them in different places.

With `[2H]C([2H])(C1CCOCC1)N1C[C@H]2C[C@H](Nc3ccc(-c4ccccc4NC(=O)CC)nn3)C[C@H]2C1` [Compound A50, N-(2-(6-(((3aR,5s,6aS)-2-((tetrahydro-2H-pyran-4-yl)methyl-d2)octahydrocyclopenta[c]pyrrol-5-yl)amino)pyridazin-3-yl)phenyl)propionamide], under setting [1], the remaining activity at 30 µM amounted to 4%. The IC50 (M4/Gqi5/CHO-K1 cells) is 0.056 µM.

For the molecule `[2H]C([2H])(C1CCOCC1)N1C[C@H]2C[C@H](Nc3ccc(-c4ccc(C(=O)NC)cc4)nn3)C[C@H]2C1` (single isomer, unassigned) [Compound A64], the remaining activity at 30 µM under setting [1] came to 5%. Also, the IC50 (M4/Gqi5/CHO-K1 cells) came to 0.016 µM.

Consider `[2H]C([2H])(C1CCOCC1)N1C[C@H]2C[C@H](Nc3ccc(-c4cc(F)c(C(=O)NC)c(F)c4F)nn3)C[C@H]2C1` [Compound A66, 2,3,6-trifluoro-N-methyl-4-(6-(((3aR,5s,6aS)-2-((tetrahydro-2H-pyran-4-yl)methyl-d2)octahydrocyclopenta[c]pyrrol-5-yl)amino)pyridazin-3-yl)benzamide], for which the remaining activity at 30 µM under setting [1] was found to be 4%. For the setting “M4/Gqi5/CHO-K1 cells”, the IC50 worked out at 0.016 µM.

With `[2H]C([2H])([2H])C(=O)Nc1ccc(-c2ccc(N[C@H]3C[C@@H]4CN(C([2H])([2H])C5CCOCC5)C[C@@H]4C3)nn2)cc1` (single isomer, unassigned) [Compound B6], the “Human M4 Emin (% ACh maximum at 30 μM)” value under setting [2] is given as 3%. Further, the IC50 (M4/Gqi5/CHO-K1 cells) worked out at 0.0012 µM.

Regarding `N#CCC(=O)Nc1cc(F)c(F)c(-c2ccc(N[C@H]3C[C@@H]4CN(CC5CCOCC5)C[C@@H]4C3)nn2)c1` [Compound A16, 2-cyano-N-(3,4-difluoro-5-(6-(((3aR,5s,6aS)-2-((tetrahydro-2H-pyran-4-yl)methyl)octahydrocyclopenta[c]pyrrol-5-yl)amino)pyridazin-3-yl)phenyl)acetamide], under setting [1], the remaining activity at 30 µM stood at 4%. In addition, the IC50 (M4/Gqi5/CHO-K1 cells) stood at 0.047 µM.

`O=C(Nc1cc(F)c(F)c(-c2ccc(N[C@H]3C[C@@H]4CN(CC5CCOCC5)C[C@@H]4C3)nn2)c1)C1(F)CC1` [Compound A12, N-(3,4-difluoro-5-(6-(((3aR,5s,6aS)-2-((tetrahydro-2H-pyran-4-yl)methyl)octahydrocyclopenta[c]pyrrol-5-yl)amino)pyridazin-3-yl)phenyl)-1-fluorocyclopropane-1-carboxamide]: the remaining activity at 30 µM under setting [1] was found to be 4%. Besides, for the setting “M4/Gqi5/CHO-K1 cells”, the IC50 turned out to be 0.085 µM.

Take `[2H]C([2H])(C1CCOCC1)N1C[C@H]2C[C@H](Nc3ccc(-c4ccccc4NC(C)=O)nn3)C[C@H]2C1` [Compound B2, N-(2-(6-(((3aR,5s,6aS)-2-((tetrahydro-2H-pyran-4-yl)methyl-d2)octahydrocyclopenta [c]pyrrol-5-yl)amino)pyridazin-3-yl)phenyl)acetamide]: the “Human M4 Emin (% ACh maximum at 30 μM)” value under setting [2] stood at 3%. Moreover, under “M4/Gqi5/CHO-K1 cells”, the IC50 is 0.058 µM.

`O=C(NC1CC1)c1ccc(-c2ccc(N[C@H]3C[C@@H]4CN(CC5CCOCC5)C[C@@H]4C3)nn2)cc1` [Compound A27, N-cyclopropyl-4-(6-(((3aR,5s,6aS)-2-((tetrahydro-2H-pyran-4-yl)methyl)octahydrocyclopenta[c]pyrrol-5-yl)amino)pyridazin-3-yl)benzamide]: under setting [1], the remaining activity at 30 µM is 3%. Also, the half-maximal inhibitory concentration (IC50) (M4/Gqi5/CHO-K1 cells) was 0.0039 µM.

For the molecule `CCN(CC)C(=O)c1ccc(-c2ccc(N[C@H]3C[C@@H]4CN(CC5CCOCC5)C[C@@H]4C3)nn2)cc1` [Compound A24, N,N-diethyl-4-(6-(((3aR,5s,6aS)-2-((tetrahydro-2H-pyran-4-yl)methyl)octahydrocyclopenta[c]pyrrol-5-yl)amino)pyridazin-3-yl)benzamide], the remaining activity at 30 µM under setting [1] is 4%. The IC50 (M4/Gqi5/CHO-K1 cells) was 0.037 µM.

Consider `CN(C)C(=O)c1cc(F)c(F)c(-c2ccc(N[C@H]3C[C@@H]4CN(CC5CCOCC5)C[C@@H]4C3)nn2)c1` [Compound A9, 3,4-difluoro-N,N-dimethyl-5-(6-(((3aR,5s,6aS)-2-((tetrahydro-2H-pyran-4-yl)methyl)octahydrocyclopenta[c]pyrrol-5-yl)amino)pyridazin-3-yl)benzamide], for which the remaining activity at 30 µM under setting [1] came to 5%. Also, the IC50 (M4/Gqi5/CHO-K1 cells) is 0.44 µM.

For the molecule `CCNC(=O)c1cccc(-c2ccc(N[C@H]3C[C@@H]4CN(CC5CCOCC5)C[C@@H]4C3)nn2)c1` [Compound A43, N-ethyl-3-(6-(((3aR,5s,6aS)-2-((tetrahydro-2H-pyran-4-yl)methyl)octahydrocyclopenta[c]pyrrol-5-yl)amino)pyridazin-3-yl)benzamide], the remaining activity at 30 µM under setting [1] came to 4%. Where the note is “M4/Gqi5/CHO-K1 cells”, the IC50 worked out at 0.013 µM.

With `O=C(c1ccc(-c2ccc(N[C@H]3C[C@@H]4CN(CC5CCOCC5)C[C@@H]4C3)nn2)cc1)N1CCC(O)C1` (stereo partly drawn) [Compound A25, (3-hydroxypyrrolidin-1-yl)(4-(6-(((3aR,5s,6aS)-2-((tetrahydro-2H-pyran-4-yl)methyl)octahydrocyclopenta[c]pyrrol-5-yl)amino)pyridazin-3-yl)phenyl)methanone], the remaining activity at 30 µM under setting [1] came to 4%. In addition, under “M4/Gqi5/CHO-K1 cells”, the IC50 was 0.025 µM.

Regarding `O=C(Nc1cc(F)c(F)c(-c2ccc(N[C@H]3C[C@@H]4CN(CC5CCOCC5)C[C@@H]4C3)nn2)c1)C1(O)CCC1` [Compound A13, N-(3,4-difluoro-5-(6-(((3aR,5s,6aS)-2-((tetrahydro-2H-pyran-4-yl)methyl)octahydrocyclopenta[c]pyrrol-5-yl)amino)pyridazin-3-yl)phenyl)-1-hydroxycyclobutane-1-carboxamide], under setting [1], the remaining activity at 30 µM amounted to 4%. Further, the IC50 (M4/Gqi5/CHO-K1 cells) was 0.064 µM.

As for `CC(=O)Nc1ccc(-c2ccc(N[C@H]3C[C@@H]4CN(Cc5ccccc5C(F)(F)F)C[C@@H]4C3)nn2)cc1` [Compound A7, N-(4-(6-(((3aR,5s,6aS)-2-(2-(trifluoromethyl)benzyl)octahydrocyclopenta [c]pyrrol-5-yl)amino)pyridazin-3-yl)phenyl)acetamide], the remaining activity at 30 µM under setting [1] came out at 10%. In addition, the IC50 (M4/Gqi5/CHO-K1 cells) is 1.1 µM.

Consider `[2H]C([2H])([2H])C(=O)Nc1cccc(-c2ccc(N[C@H]3C[C@@H]4CN(CC5CCOCC5)C[C@@H]4C3)nn2)c1` [Compound A61, N-(3-(6-(((3aR,5s,6aS)-2-((tetrahydro-2H-pyran-4-yl)methyl)octahydrocyclopenta[c]pyrrol-5-yl)amino)pyridazin-3-yl)phenyl)acetamide-2,2,2-d3], for which the remaining activity at 30 µM under setting [1] amounted to 3%. Moreover, for the setting “M4/Gqi5/CHO-K1 cells”, the IC50 is 0.012 µM.

In the case of `O=C(Nc1ccc(-c2ccc(N[C@H]3C[C@@H]4CN(CC5CCOCC5)C[C@@H]4C3)nn2)cc1)C1CC1` [Compound A26, N-(4-(6-(((3aR,5s,6aS)-2-((tetrahydro-2H-pyran-4-yl)methyl)octahydrocyclopenta[c]pyrrol-5-yl)amino)pyridazin-3-yl)phenyl)cyclopropanecarboxamide], under setting [1], the remaining activity at 30 µM was determined as 3%. Moreover, the IC50 (M4/Gqi5/CHO-K1 cells) worked out at 0.0068 µM.

Take `[2H]C([2H])([2H])NC(=O)c1cccc(-c2ccc(N[C@H]3C[C@@H]4CN(C([2H])([2H])C5CCOCC5)C[C@@H]4C3)nn2)c1` (single isomer, unassigned) [Compound A49]: under setting [1], the remaining activity at 30 µM came out at 3%. Moreover, the IC50 (M4/Gqi5/CHO-K1 cells) was 0.0055 µM.

`[2H]C([2H])([2H])NC(=O)c1ccc(-c2ccc(N[C@H]3C[C@@H]4CN(CC5CCOCC5)C[C@@H]4C3)nn2)cc1` (single isomer, unassigned) [Compound A54]: the remaining activity at 30 µM under setting [1] is 3%. Besides, the concentration for half-maximal inhibition (IC50) (M4/Gqi5/CHO-K1 cells) stood at 0.0099 µM.

For the molecule `O=C(NC1CC(F)(F)C1)c1cc(F)c(F)c(-c2ccc(N[C@H]3C[C@@H]4CN(CC5CCOCC5)C[C@@H]4C3)nn2)c1` [Compound A19, N-(3,3-difluorocyclobutyl)-3,4-difluoro-5-(6-(((3aR,5s,6aS)-2-((tetrahydro-2H-pyran-4-yl)methyl)octahydrocyclopenta[c]pyrrol-5-yl)amino)pyridazin-3-yl)benzamide], under setting [1], the remaining activity at 30 µM was determined as 4%. In addition, the IC50 (M4/Gqi5/CHO-K1 cells) was 0.082 µM.

Turning to `O=C(Nc1cc(F)c(F)c(-c2ccc(N[C@H]3C[C@@H]4CN(CC5CCOCC5)C[C@@H]4C3)nn2)c1)C(F)F` [Compound A15, N-(3,4-Difluoro-5-(6-(((3aR,5s,6aS)-2-((tetrahydro-2H-pyran-4-yl)methyl)octahydrocyclopenta[c]pyrrol-5-yl)amino)pyridazin-3-yl)phenyl)-2,2-difluoroacetamide], for the setting “CHO-K1, read-out: Human M4 Emin (% ACh maximum at 30 μM)”, the remaining activity at 30 µM was 4%. Moreover, under “M4/Gqi5/CHO-K1 cells”, the IC50 is 0.015 µM.

In the case of `[2H]C([2H])([C@@H]1CCCCO1)N1C[C@H]2C[C@H](Nc3ccc(-c4cc(F)cc(C(=O)NC)c4)nn3)C[C@H]2C1` [Compound A86, 3-fluoro-N-methyl-5-(6-(((3aR,5s,6aS)-2-(((S)-tetrahydro-2H-pyran-2-yl)methyl-d2)octahydrocyclopenta[c]pyrrol-5-yl)amino)pyridazin-3-yl)benzamide], the remaining activity at 30 µM under setting [1] is 4%. Under “M4/Gqi5/CHO-K1 cells”, the IC50 is 0.0027 µM.

The record behind these values is US20240228468A1, “N-(6-((OCTAHYDROCYCLOPENTA[C]PYRROL-5-YI)AMINO)PYRIDAZIN-3-YL)PHENYL)CARBOXAMIDE AND (6- ((OCTAHYDROCYCLOPENTA[C]PYRROL-5-YL)AMINO)PYRIDAZIN-3-YL)BENZAMIDE DERIVATIVES AS MACHR M4 ANTAGONISTS FOR THE TREATMENT OF NEURODEGENERATIVE DISORDERS” (Vanderbilt University, priority 2021, published 2024).
